Assay results published in patent US20160022683A1, “COMBINATIONS OF BRUTON'S TYROSINE KINASE INHIBITORS AND CYP3A4 INHIBITORS” (PHARMACYCLICS LLC, priority 2013, published 2016).
Values joined by “and” are separate entries in the source; they are usually repeats but may differ in a detail not shown here. Equal values may be shown once. Read-outs that look alike come from different tables or passages of the source.

Assays:
[1] = for DN* AUC∞ / DN*AUC0-24 / DN*AUClast / DN*Cmax: dose normalized
[2] = clinical; details: male, human, plasma, oral, 120 mg
[3] = healthy subjects
[4] = clinical; details: human, oral, 560 mg
[5] = clinical; details: human, in vivo, oral, spread in brackets; for AUC(0-inf): AUCinf
[6] = PCI-45227 in plasma, Day 1, 120 mg Ibrutinib alone, geom. mean
[7] = PCI-45227 in plasma, Day 1, 120 mg Ibrutinib alone, mean
[8] = PCI-45227 in plasma, Day 1, 120 mg Ibrutinib alone, median
[9] = PCI-45227 in plasma, Day 1, 120 mg Ibrutinib alone, not dose normalized, mean
[10] = PCI-45227 in plasma, Day 7, 40 mg Ibrutinib + ketoconazole, geom. mean
[11] = PCI-45227 in plasma, Day 7, 40 mg Ibrutinib + ketoconazole, mean
[12] = PCI-45227 in plasma, Day 7, 40 mg Ibrutinib + ketoconazole, median
[13] = Ibrutinib in plasma, Day 1, 120 mg Ibrutinib alone, geom. mean
[14] = Ibrutinib in plasma, Day 1, 120 mg Ibrutinib alone, mean
[15] = Ibrutinib in plasma, Day 1, 120 mg Ibrutinib alone, median
[16] = Ibrutinib in plasma, Day 1, 120 mg Ibrutinib alone, n=12, geom. mean
[17] = Ibrutinib in plasma, Day 1, 120 mg Ibrutinib alone, n=12, mean
[18] = Ibrutinib in plasma, Day 1, 120 mg Ibrutinib alone, not dose normalized, mean
[19] = Ibrutinib in plasma, Day 7, 40 mg Ibrutinib + ketoconazole, geom. mean
[20] = Ibrutinib in plasma, Day 7, 40 mg Ibrutinib + ketoconazole, mean
[21] = Ibrutinib in plasma, Day 7, 40 mg Ibrutinib + ketoconazole, median
[22] = 560 mg, Ibrutinib 560 mg alone, fasted, n=8
[23] = 560 mg, Ibrutinib 560 mg alone, fed, n=8
[24] = Ibrutinib 140 mg + grapefruit juice, fed, n=8

SMILES: Nc1ncnc2c1c(-c1ccc(Oc3ccccc3)cc1)nn2[C@@H]1CCCN(C(=O)C(O)CO)C1 (some centres unmarked) [PCI-45227]
- DN* AUC∞ [1, 6]: 98.2 ng·h/mL
- DN*AUC0-24 [1, 6]: 76.6 ng·h/mL
- DN*AUClast [1, 6]: 96.4 ng·h/mL
- DN*Cmax [1, 6]: 8.81 ng/mL
- DN* AUC∞ [1, 7]: 103 ng·h/mL
- DN*AUC0-24 [1, 7]: 82.2 ng·h/mL
- DN*AUClast [1, 7]: 101 ng·h/mL
- DN*Cmax [1, 7]: 9.70 ng/mL
- DN* AUC∞ [1, 8]: 101 ng·h/mL
- DN*AUC0-24 [1, 8]: 81.3 ng·h/mL
- DN*AUClast [1, 8]: 100 ng·h/mL
- DN*Cmax [1, 8]: 9.45 ng/mL
- AUMC∞ [1, 6]: 4122 h · h · ng/mL
- CL/F [1, 6]: 407 L/h
- MRT [1, 6]: 14.0 h
- T½ term [1, 6]: 11.2 h
- tlast [1, 6]: 65.80 h
- tmax [1, 6]: 2.25 h
- λz [1, 6]: 0.0619 h⁻¹
- AUMC∞ [1, 7]: 4297 h · h · ng/mL
- CL/F [1, 7]: 428 L/h
- MRT [1, 7]: 14.3 h
- T½ term [1, 7]: 11.41 h
- tlast [1, 7]: 66.7 h and 66.67 h
- tmax [1, 7]: 2.42 h
- λz [1, 7]: 0.0630 h⁻¹
- AUMC∞ [1, 8]: 3979 h · h · ng/mL
- CL/F [1, 8]: 395 L/h
- MRT [1, 8]: 13.6 h
- T½ term [1, 8]: 10.74 h
- tlast [1, 8]: 72.00 h
- tmax [1, 8]: 2.00 h
- λz [1, 8]: 0.0645 h⁻¹
- AUC0-24 [1, 9]: 247 ng·h/mL
- Cmax [1, 9]: 29.1 ng/mL
- AUC0-24 [1, 10]: 53.4 ng·h/mL
- AUClast [1, 10]: 82.7 ng·h/mL
- AUC∞ [1, 10]: 89.4 ng·h/mL
- AUMC∞ [1, 10]: 2216 h · h · ng/mL
- CL/F [1, 10]: 448 L/h
- Cmax [1, 10]: 3.63 ng/mL
- MRT [1, 10]: 24.8 h
- T½ term [1, 10]: 17.49 h
- tlast [1, 10]: 67.30 h
- tmax [1, 10]: 3.77 h
- λz [1, 10]: 0.0396 h⁻¹
- AUC0-24 [1, 11]: 54.5 ng·h/mL
- AUClast [1, 11]: 85.2 ng·h/mL
- AUC∞ [1, 11]: 92.2 ng·h/mL
- AUMC∞ [1, 11]: 2416 h · h · ng/mL
- CL/F [1, 11]: 461 L/h
- Cmax [1, 11]: 3.71 ng/mL
- MRT [1, 11]: 25.4 h
- T½ term [1, 11]: 17.99 h
- tlast [1, 11]: 68.01 h
- tmax [1, 11]: 3.95 h
- λz [1, 11]: 0.0407 h⁻¹
- AUC0-24 [1, 12]: 53.8 ng·h/mL
- AUClast [1, 12]: 82.7 ng·h/mL
- AUC∞ [1, 12]: 89.6 ng·h/mL
- AUMC∞ [1, 12]: 2177 h · h · ng/mL
- CL/F [1, 12]: 447 L/h
- Cmax [1, 12]: 3.74 ng/mL
- MRT [1, 12]: 24.8 h
- T½ term [1, 12]: 16.61 h
- tlast [1, 12]: 72.00 h
- tmax [1, 12]: 4.00 h
- λz [1, 12]: 0.0417 h⁻¹

SMILES: C=CC(=O)N1CCC[C@@H](n2nc(-c3ccc(Oc4ccccc4)cc3)c3c(N)ncnc32)C1 [Ibrutinib, 1-((R)-3-(4-amino-3-(4-phenoxyphenyl)-1H-pyrazolo[3,4-d]pyrimidin-1-yl)-piperidin-1-yl)prop-2-en-1-one]
- AUC(0-inf) [2]: 22.4 ng·h/mL
- MRT [2]: 9.13 h
- Ibrutinib systemic exposure when dosed concomitantly with rifampin [3]: significantly affected
- AUC(0-t) ([4]; blood): 259 ng·h/mL
- Cmax ([4]; blood): 42 ng/mL
- AUC(0-inf) ([4]; in vivo): 397 ng·h/mL
- DN*AUC0-24 [1, 13]: 18.7 ng·h/mL
- DN*AUClast [1, 13]: 20.4 ng·h/mL
- DN*Cmax [1, 13]: 3.33 ng/mL
- DN*AUC0-24 [1, 14]: 21.3 ng·h/mL
- DN*AUClast [1, 14]: 23.8 ng·h/mL
- DN*Cmax [1, 14]: 3.92 ng/mL
- DN*AUC0-24 [1, 15]: 18.5 ng·h/mL
- DN*AUClast [1, 15]: 19.2 ng·h/mL
- DN*Cmax [1, 15]: 3.57 ng/mL
- DN* AUC∞ [1, 16]: 23.7 ng·h/mL
- DN* AUC∞ [1, 17]: 28.1 ng·h/mL
- tlast [1, 13]: 30.93 h
- tlast [1, 14]: 34.00 h
- tlast [1, 15]: 24.01 h
- AUMC∞ [1, 16]: 576 h · h · ng/mL
- MRT [1, 16]: 8.11 h
- AUMC∞ [1, 17]: 857 h · h · ng/mL
- MRT [1, 17]: 8.93 h
- AUMC∞ ([1]; Ibrutinib in plasma, Day 1, 120 mg Ibrutinib alone, n=12, median): 693 h · h · ng/mL
- AUC0-24 [1, 18]: 63.8 ng·h/mL
- Cmax [1, 18]: 11.8 ng/mL
- AUC0-24 [1, 19]: 464 ng·h/mL
- AUClast [1, 19]: 488 ng·h/mL
- AUC∞ [1, 19]: 491 ng·h/mL
- AUMC∞ [1, 19]: 3235 h · h · ng/mL
- Cmax [1, 19]: 95.2 ng/mL
- MRT [1, 19]: 6.6 h
- tlast [1, 19]: 40.51 h
- AUC0-24 [1, 20]: 510 ng·h/mL
- AUClast [1, 20]: 533 ng·h/mL
- AUC∞ [1, 20]: 536 ng·h/mL
- AUMC∞ [1, 20]: 3504 h · h · ng/mL
- Cmax [1, 20]: 108 ng/mL
- MRT [1, 20]: 6.8 h
- tlast [1, 20]: 42.68 h
- AUClast [1, 21]: 559 ng·h/mL
- AUMC∞ [1, 21]: 3635 h · h · ng/mL
- tlast [1, 21]: 48.00 h
- Ibrutinib systemic exposure when dosed concomitantly with ketoconazole ([1]; healthy subjects): significantly affected
- AUC(0-t) ([5]; 560 mg, AUC0-24 h, Ibrutinib 560 mg alone, fasted, n=8): 229 ng·h/mL
- AUC(0-t) ([5]; 560 mg, AUC0-24 h, Ibrutinib 560 mg alone, fed, n=7): 544 ng·h/mL
- AUC(0-inf) [5, 22]: 368 ng·h/mL
- AUC(0-inf) [5, 23]: 659 ng·h/mL
- AUC(0-t) ([5]; 560 mg, AUClast, Ibrutinib 560 mg alone, fasted, n=8): 289 ng·h/mL
- AUC(0-t) ([5]; 560 mg, AUClast, Ibrutinib 560 mg alone, fed, n=8): 606 ng·h/mL
- Cmax [5, 22]: 245 ng/mL
- Cmax [5, 23]: 128 ng/mL
- AUC(0-t) ([5]; AUC0-24 h, Ibrutinib 140 mg + grapefruit juice, fed, n=7): 339 ng·h/mL
- AUC(0-inf) [5, 24]: 334 ng·h/mL
- AUC(0-t) ([5]; AUClast, Ibrutinib 140 mg + grapefruit juice, fed, n=8): 325 ng·h/mL
- Cmax [5, 24]: 125 ng/mL
